Format in all cases: cell-based, ICR mice
For series [1], the system named is inner hair cells (IHCs) and outer hair cells (OHCs) of the organ of Corti. In words: Phalloidin staining of stereocilia / hair cell morphology in organotypic cochlear explants. The settings on record: for hair cell morphology / damage after antibiotic treatment / relative severity of damage, OHC versus IHC: cochlear explants, no BC; for hair cell morphology / damage after antibiotic treatment: 1.2 mM KM, 3 mM AK or 100 μM GM; for relative severity of damage, OHC versus IHC: 1.2 mM KM or 100 μM GM. How it is done:
(§1) Three-day-old ICR (Institute for Cancer Research) mice were purchased from Hyochang Science (Daegu, South Korea) for […]. Dissected cochleae were cultured in high-glucose Dulbecco's Modified Eagle's Medium (DMEM; Hyclone, Logan, UT, USA) containing 10% fetal bovine serum (Hyclone) and ampicillin (10 μg/mL; Life Technologies, Carlsbad, CA, USA) at 37° C. in a humidified atmosphere in the presence of 5% CO2. After 16 hours of culture, cochleae were first treated with 0.1 μM or 1 μM BC for 1 hour, followed by addition of one of three aminoglycoside antibiotics (1.2 mM KM, 3 mM AK, or 100 μM GM) to the culture medium. BC concentrations were optimized for each aminoglycoside (0.1 μM for KM, 1 μM for AK and GM).
(§2) To evaluate the morphology of inner hair cells (IHCs) and outer hair cells (OHCs) of the organ of Corti, the specimens were cultured for 48 hours and fixed with 4% paraformaldehyde (PFA, pH 7.4) in PBS for 15 minutes. After washing three times with PBS, a stereociliary bundle of explants was stained with Alexa Fluor 488-or 555-conjugated phalloidin (1:1,000; Invitrogen-Molecular Probes, Eugene, OR) in PBS for 1 hour at room temperature (RT). Specimens were mounted on glass slides using Fluoromount (Sigma-Aldrich, St. Louis, MO) and visualized using an Axio Imager A2 fluorescence microscope (Carl Zeiss, Oberkochen, Germany).

Series [2] has as its system IHCs and OHCs (cochlear hair cells). Kind of series: Quantification of surviving hair cells with V-shaped stereocilia in cochlear explants. The note with it: for IHC survival / cytotoxicity to IHC: 3 mM AK, 1.2 mM KM, 100 μM GM, no BC. How it is done:
as §1, §2
[Example 5] Quantification of hair cells and statistical analysis For quantitative analysis of hair cell damage, IHCs and OHCs with intact v-shaped […] were individually counted along a 200 μm length of basilar membrane in the apical (30%), middle (50%), and basal (70%) regions of each cochlear probe. All experiments were performed independently at least three times.

The subject of series [3] is cleaved caspase-3 in organ of Corti. In words: Immunohistochemistry for cleaved (active) caspase-3 in cochlear explants. The settings on record: for level of cleaved caspase-3 after antibiotic treatment: KM, AK, or GM versus untreated controls, no BC. How it is done:
as §1
Immunohistochemistry and TUNEL assay for active caspase-3 were used to determine whether cell death in the organ of Corti occurred by apoptosis. Specimens were fixed with 4% PFA, kept permeabilized with 0.1% Triton X-100 in PBS (PBS-Tx) for 30 minutes at room temperature (RT), blocked with 5% normal goat serum for 1 hour at room temperature (RT), and cultured overnight with anti-caspase-3 antibody (1:1,000; Cell Signaling Technology, Bevery, MA) diluted in blocking solution.

In series [4] the test system is cells of the organ of Corti. Kind of series: TUNEL assay of apoptotic DNA fragmentation in cochlear explants. The note with it: for apoptotic DNA fragmentation / cell death induced by antibiotic: KM, AK, or GM in mouse cochlea, no BC. Here is the method: as §1
To detect DNA fragmentation leading to cell death, a TUNEL assay kit (Promega, Madison, WI) was used according to the manufacturer's protocol. Specimens were fixed with 4% paraformaldehyde in PBS for 15 minutes at room temperature (RT) and treated with 0.1% PBS-Tx in 0.1% sodium citrate for 30 minutes at 37° C. Fragmented DNA from cells was stained using TUNEL working solution at 37° C. for 30 minutes. F-actin was labeled with Alexa Fluor 555-conjugated phalloidin in PBS-Tx for 3 hours at room temperature (RT) in the dark and visualized using a Zeiss Axio Imager A2 fluorescence microscope.

The test system of series [5] is mitochondrial membrane potential of cochlear hair cells. Kind of series: JC-1 assay of mitochondrial membrane potential in cochlear explants. The note with it: for red/green fluorescence ratio (mitochondrial membrane potential) after antibiotic treatment: KM, AK, or GM only. How it is done:
as §1
The cationic fluorescent dye MitoProbe™ JC-1 (Invitrogen-Molecular Probes) was used to measure the mitochondrial membrane potential. After 30 hours of culture, the specimens were washed with PBS and stained with JC-1 (2 μM) for 2 hours at 37° C. in the presence of 5% CO2 in a darkroom. The sensitivity of the JC-1 assay was verified by adding 50 μM carbonyl [COMPOUND LEFT OUT] 3-chlorophenylhydrazone (CCCP) to untreated specimens before JC-1 staining, and then the specimens were cultured at 37° C. in the presence of 5% CO2 for 5 minutes for activation of CCCP. JC-1 fluorescence was split into red and green, and then the segmented images were converted to grayscale, followed by evaluation using ImageJ software (http://imageJ.nih.gov/ij/).

Series [6] concerns mitochondrial reactive oxygen species (ROS) in cochlear hair cells. Kind of series: MitoSOX Red assay of mitochondrial ROS in cochlear explants. How it is done: as §1
To analyze AK or KM-induced mitochondrial oxidative stress, cochlear explants were examined by MitoSOX Red assay and JC-1 assay. Levels of mitochondrial reactive oxygen species (ROS) were detected by staining with 5 μM MitoSOX Red (Invitrogen-Molecular Probes) for 5 minutes in a humidified atmosphere at 37° C. in the presence of 5% CO2. The specimen was washed with PBS and visualized using a Zeiss Axio Imager A2 fluorescence microscope.

For the molecule `NCC[C@H](O)C(=O)N[C@@H]1C[C@H](N)[C@@H](O[C@H]2O[C@H](CN)[C@@H](O)[C@H](O)[C@H]2O)[C@H](O)[C@H]1O[C@H]1O[C@H](CO)[C@@H](O)[C@H](N)[C@H]1O` [AK, amikacin], in series [1], the “hair cell morphology / damage after antibiotic treatment” value is “most of their cilia disintegrated and lost, making them unrecognizable”. Further, the “IHC survival / cytotoxicity to IHC” value in series [2] was “virtually destroyed”. Besides, the “level of cleaved caspase-3 after antibiotic treatment” value (from here on “level”) in series [3] was “significantly increased levels of cleaved caspase-3 compared to untreated controls”. Further, the “apoptotic DNA fragmentation / cell death induced by antibiotic” value in series [4] is reported as “resulted in cell death”. In addition, the “red/green fluorescence ratio (mitochondrial membrane potential) after antibiotic treatment” value in series [5] (JC-1) was “significant decrease in the red/green ratio along with a loss of red signal”.
On to `COc1ccc2cc3[n+](cc2c1OC)CCc1cc2c(cc1-3)OCO2` [BC, berberine chloride], for which, in series [1] (0.1 or 1 μM BC for 1 hour before antibiotic (KM, AK, or GM), apical, middle, basal regions), the “protection against stereocilia degeneration and hair cell loss” value is “alleviated stereocilia degeneration and hair cell loss in all cochlear regions”. Also, in series [2] (BC pretreatment (0.1 μM for KM, 1 μM for AK and GM), IHC and OHC, apical, middle and basal turns), the “reduction of antibiotic-induced hair cell damage (surviving hair cells)” value was “antibiotic-induced damage was reduced to near-normal levels”. The “cytotoxicity of BC to IHC and OHC” value in series [2] (BC, cochlear explants) is “no detrimental effects on IHC or OHC”. In addition, in series [3] (BC pre-treatment before antibiotics (KM, AK, GM)), the “reduction of cleaved caspase-3” value was “reduced cleaved caspase-3”. In series [4] (BC pretreatment compared with KM, AK, or GM treatment), the “reduction of apoptotic DNA fragmentation (TUNEL labeling)” value is “significant reduction by BC pretreatment to near control levels”. The “decrease of MitoSOX Red fluorescence intensity (mitochondrial ROS)” value in series [6] (BC pretreatment, then KM, AK or GM) was “significant decrease in fluorescence intensity”. The “statistical significance of reduced integrated density of red fluorescence” value in series [6] (BC treatment group versus AK, KM, and GM groups) was “statistically significant compared to the AK, KM, and GM groups”. Also, the “red/green fluorescence ratio (mitochondrial membrane potential) with BC” value in series [5] (BC pretreatment, then KM, AK or GM, JC-1, n=3 per group, *P<0.05 and **P<0.01) is reported as “red/green fluorescence ratio was found to increase”. Also, in series [5] (BC pretreatment, then KM, AK or GM, n=3 per group, *P<0.05 and **P<0.01), the “statistical significance of protective effect on mitochondrial membrane potential” value is reported as “statistically significant”.
Consider `NC[C@H]1O[C@H](O[C@H]2[C@H](O)[C@@H](O[C@H]3O[C@H](CO)[C@@H](O)[C@H](N)[C@H]3O)[C@H](N)C[C@@H]2N)[C@H](O)[C@@H](O)[C@@H]1O` [KM, kanamycin], for which, in series [1], the “relative severity of damage, OHC versus IHC” value was “more severe in OHC than in IHC” and the “hair cell morphology / damage after antibiotic treatment” value is recorded as “not only altered the ciliary morphology of hair cells but also disrupted cell arrangement, with induction of cell loss in a complex manner”. In addition, in series [2], the “IHC survival / cytotoxicity to IHC” value is reported as “more resistant”. The “level” value in series [3] was “significantly increased levels of cleaved caspase-3 compared to untreated controls”. For the same molecule, the “apoptotic DNA fragmentation / cell death induced by antibiotic” value in series [4] is “resulted in cell death”. In series [5] (JC-1), the “red/green fluorescence ratio (mitochondrial membrane potential) after antibiotic treatment” value was “significant decrease in the red/green ratio along with a loss of red signal”.
Regarding gentamicin [GM], the “relative severity of damage, OHC versus IHC” value in series [1] is listed as “caused more severe damage to OHCs than IHCs, with loss of hair cells”. The “IHC survival / cytotoxicity to IHC” value in series [2] is given as “more resistant”. Further, in series [3], the “level” value was “significantly increased levels of cleaved caspase-3 compared to untreated controls”. Also, the “apoptotic DNA fragmentation / cell death induced by antibiotic” value in series [4] was “resulted in cell death”. Also, the “red/green fluorescence ratio (mitochondrial membrane potential) after antibiotic treatment” value in series [5] (JC-1) is on record as “significant decrease in the red/green ratio along with a loss of red signal”.

(Values after patent publication US20260294880A1, “COMPOSITION FOR TREATING OTOTOXIC HEARING LOSS CAUSED BY AMINOGLYCOSIDE ANTIBIOTICS” (KYUNGPOOK NATIONAL UNIVERSITY INDUSTRY-ACADEMIC COOPERATION …, priority 2023, published 2026).)
